Assays:
[1] = tested on: Rac1 activity in A549 cells; test: Rac1 activity assay (affinity isolation of GTP-bound Rac1) in A549 cells; format: cell-based, human
Method: Rac 1 Activity Assays: Rac1 activity in A549 and H1299 cell transfectants was assessed by affinity isolation of GTP-bound Rac1 using binding domains of PAK as described previously (Sander et al., J. Cell Biol., 143(5):1385-98 (1998)). Briefly, cells were lysed in lysis buffer (50 mM Tris-HCl pH 7.5, 150 mM NaCl, 20 mM MgCl2, 5 mM EGTA, 10% glycerol, 1% Triton X-100, 1% NP-40, 25 mM NaF, 1 mM phenylmethylsulfonyl fluoride, 1 mM sodium orthovanadate, 10 μg/ml leupeptin, 10 μg/ml aprotinin) at 4° C. for 5 min. Cellular debris was removed by centrifugation at 20,000×g for 5 min, and supernatants were transferred to new tubes containing 20 μl of GST-p21-binding domain of PAK1 (PAK1-PBD) coupled to agarose beads (Upstate). An aliquot of each supernatant was reserved to determine total Rac1 and actin expression by immunoblot analysis. Following a 30-minute incubation at 4° C., the agarose beads were collected by centrifugation and washed three times in wash buffer (50 mM Tris-HCl pH 7.5, 150 mM NaCl, 20 mM MgCl2, 5 mM EGTA, 10% glycerol, 1% Triton X-100, 1% NP-40, 25 mM NaF, 1 mM phenylmethylsulfonyl fluoride, 1 mM sodium orthovanadate, 10 μg/ml leupeptin, 10 μg/ml aprotinin). Bound polypeptides were solubilized by the addition of 30 μl of SDS sample buffer, resolved by SDS-PAGE, and subjected to immunoblot analysis for Rac1. An equivalent aliquot of the total cell lysate was subjected to immunoblot analysis to determine total Rac1 expression.
Rac 1 Activity Assays: A549 cells were incubated with the indicated concentration of ATG for one hour prior to analysis. Rac1 activity in A549 cells was assessed by affinity isolation of GTP-bound Rac1 using binding domains of PAK as described elsewhere (Sander et al., J. Cell Biol., 143:1385-98 (1998)). Briefly, cells were lysed in lysis buffer (50 mM Tris-HCl pH 7.5, 150 mM NaCl, 20 mM MgCl2, 5 mM EGTA, 10% glycerol, 1% Triton X-100, 1% NP-40, 25 mM NaF, 1 mM phenylmethylsulfonyl fluoride, 1 mM sodium orthovanadate, 10 μg/ml leupeptin, and 10 μg/ml aprotinin) at 4° C. for 5 min. […]

[2] = target: T1, interaction of PKCι polypeptides with PAR6 polypeptides (Homo sapiens, UniProt P41743); test: Primary screen: FRET assay of PKCι113-YFP-N1 (PYN) and PAR6125-CFP-C1; conditions: FIG. 18; less binding as concentration increased
T1 construct: amino acids 1-113 or a full-length PKCι polypeptide; 6xHis; made in house
T1 sequence (P41743 10-122): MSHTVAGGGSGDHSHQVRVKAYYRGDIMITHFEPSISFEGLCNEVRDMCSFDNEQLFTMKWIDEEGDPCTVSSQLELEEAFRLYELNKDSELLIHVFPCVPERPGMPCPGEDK
Method: A primary screen was performed as follows to identify test compound having the potential to inhibit the interaction of PKCι polypeptides with PAR6 polypeptides. Bacterially expressed PKCι113-YFP-N1 (PYN) was isolated from the soluble fraction of bacterial lysates by affinity purification according to the manufacturer's protocol (B-PER 6×His Purification Kit; Pierce). The purified polypeptide was dialyzed against Tris buffer (50 mM Tris, pH 8.0; 135 mM NaCl; 10% glycerol; 0.002% EDTA) containing 2 M urea. PAR6125-CFP-C1 recombinant polypeptide was isolated from the inclusion body pellets of bacterial lysates using the B-PER reagent (Pierce) according to the manufacturer's protocol. […] Yields were measured by fluorescence in a SpectraMax Gemini microplate reader (Molecular Devices).
To perform the assay, PYN was diluted to 4000 relative fluorescent units/50 μl in Tris buffer plus 1 M urea, and PAR6125-CFP-C1 was diluted to 400 relative fluorescent units/50 μl Tris buffer plus 1 M urea. […] Fluorescence was measured in a SpectraMax Gemini plate reader. Cyan fluorescence was measured at excitation 395 nm, emission 475 nm, and cutoff of 455 nm. Yellow fluorescence was measured at excitation 395 nm, emission 529, and cutoff of 515=n. […]

A549 cells = test: Soft agar growth assay (anchorage-independent growth) of A549 cells; format: cell-based, human; conditions: A549 cells, FIG. 20
Method: (§1) Anchorage-independent growth was assayed by the ability of cells to form colonies in soft agar. The bottom agar consisted of growth medium containing 10% FBS and 0.75% agarose in 60-mm tissue culture dishes. Nine hundred cells were resuspended in growth medium containing 10% FBS and 0.75% agarose, and plated on top of the bottom agar. The cells were incubated at 37° C. in 5% CO2. Cell colonies were visualized and quantified under a dissecting microscope (Olympus) after 4-6 weeks in culture.
as §1, with “Soft Agar Growth Assays: Anchorage-independent growth” for “Anchorage-independent growth”, “and 0.75% agarose and plated” for “and 0.75% agarose, and plated”, “bottom agar. ATG was added at the indicated concentration to both bottom and top agar solutions. The cells” for “bottom agar. The cells”

## OC[C@H]1O[C@H]([S-])[C@H](O)[C@@H](O)[C@@H]1O.[Au+] [Aurothioglucose]
[1]; A549 cells incubated with ATG for one hour, FIG. 19
  Rac1 activity: decreased Rac1 activity
[1]; A549 cells, less Rac1 activity as ATG concentrations increased
  dose dependence of Rac1 activity: dose-dependent effect on Rac1 activity
[2]
  dose-response in the FRET assay: relative binding of PKCι and PAR6 polypeptides: dose-dependent effect
A549 cells; 10 μM
  soft agar growth: decreased soft agar growth
A549 cells; 100 μM
  soft agar growth: decreased soft agar growth

— US7642400B2, “Protein kinase C iota” (Mayo Foundation for Medical Education and Research, priority 2004, dated 2010)
